Read-outs that look alike come from different tables or passages of the source. One block for each molecule: values may come before it.
How the values were obtained:
[1] = cited: J. A. Straw et al, Cancer Research 44, 3114 (1984); cited from earlier work
[2] = cited: J. A. Straw et al, Cancer Research 44, 3114 (1984); cited from earlier work; remark: listed apart in the source
[3] = Solubility in water; format: physicochemical; conditions: for solubility in water (in words): qualitative; for solubility: water
[4] = Stability of folinic acid at higher pH during recrystallization; format: physicochemical; conditions: pH above the 8.5 to 12 range of the first recrystallization

SMILES: Nc1nc2c(c(=O)[nH]1)N(C=O)[C@H](CNc1ccc(C(=O)N[C@@H](CCC(=O)O)C(=O)O)cc1)CN2 [5-CHO-(6R)-H4 PteGlu]
elimination through the urine [1]: slowly eliminated through the urine
metabolism [1]: barely metabolized
biochemical activity [2]: biochemically inactive

solubility in water (in words) [3]: barely soluble
SMILES: Nc1nc(=O)c2c([nH]1)NC[C@H](CNc1ccc(C(=O)N[C@@H](CCC(=O)O)C(=O)O)cc1)N2C=O [(6S)-folinic acid, N-(5-formyl-(6S)-5,6,7,8-tetrahydro-pteroyl)-L-glutamic acid]

solubility in water (in words) [3]: readily soluble
SMILES: Nc1nc(=O)c2c([nH]1)NC[C@H](CNc1ccc(C(=O)N[C@@H](CCC(=O)O)C(=O)O)cc1)N2C=O [Potassium-(6S)-folinate]

solubility in water (in words) [3]: readily soluble
SMILES: Nc1nc(=O)c2c([nH]1)NC[C@H](CNc1ccc(C(=O)N[C@@H](CCC(=O)O)C(=O)O)cc1)N2C=O [Sodium-(6S)-folinate]

strength of aqueous solution that can be formed ([3]; at 20° C., aqueous solution): 0.95%
solubility ([3]; at 40° C., read-out: Solubility in water): 15 mg/mL
SMILES: Nc1nc(=O)c2c([nH]1)NC[C@H](CNc1ccc(C(=O)N[C@@H](CCC(=O)O)C(=O)O)cc1)N2C=O [calcium-(6S)-folinate, Calcium-(6S)-folinate]

stability at higher pH [4]: appreciably lower
SMILES: Nc1nc2c(c(=O)[nH]1)N(C=O)C(CNc1ccc(C(=O)N[C@@H](CCC(=O)O)C(=O)O)cc1)CN2 (stereo partly drawn) [folinic acid, N-(5-formyl-(6R,S)-5,6,7,8-tetrahydro-pteroyl)-L-glutamic acid]

Solubility in water ([3]; at 20° C.): 2.4 g/100 ml
solubility ([3]; general statement in description, temperature not given, read-out: water solubility): > 20 mg/mL
SMILES: Nc1nc(=O)c2c([nH]1)NC[C@H](CNc1ccc(C(=O)N[C@@H](CCC(=O)O)C(=O)O)cc1)N2C=O [magnesium-(6S)-folinate, Magnesium-(6S)-folinate]
